Where two headings read alike, the source gives them in different places.
Columns and labels:
ACE-2 [1] = molecular target: ACE-2 (Rattus norvegicus, UniProt Q5EGZ1); test: ACE-2 Competitive Substrate Assay, rat ACE-2; format: biochemical; settings: Ki class, compounds tested in 5% DMSO
Carboxypeptidase A = molecular target: T1, Carboxypeptidase A (Bos taurus, UniProt P00730); test: Carboxypeptidase A activity assay; format: biochemical; settings: Ki class, compounds tested in 5% DMSO
T1 sequence (P00730 111-419): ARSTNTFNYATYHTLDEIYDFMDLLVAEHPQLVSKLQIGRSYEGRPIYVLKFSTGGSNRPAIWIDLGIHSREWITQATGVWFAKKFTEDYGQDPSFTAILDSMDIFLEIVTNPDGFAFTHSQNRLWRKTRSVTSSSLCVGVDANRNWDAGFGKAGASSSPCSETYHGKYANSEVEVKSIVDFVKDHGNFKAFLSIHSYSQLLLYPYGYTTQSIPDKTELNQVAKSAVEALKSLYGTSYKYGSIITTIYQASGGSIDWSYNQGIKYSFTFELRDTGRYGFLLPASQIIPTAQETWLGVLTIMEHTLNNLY
Procedure, shortened: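 Ki obtained by correcting apparent Ki for substrate, Ki=Kiapp/(1+[S]/Km), from 12-concentration series. Enzyme activity read by absorbance at 328 nm with 5% DMSO present, EDTA stop.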

ACE (Sigma, A2580) = molecular target: T2, ACE (Sigma, A2580) (Sus scrofa, UniProt F1RRW5); test: ACE enzymatic activity assay; format: biochemical, porcine; settings: Ki class, compounds tested in 5% DMSO
T2 construct: ACE from porcine kidney; purchased Sigma A2580; host or cells: porcine kidney
T2 sequence (F1RRW5 34-1309): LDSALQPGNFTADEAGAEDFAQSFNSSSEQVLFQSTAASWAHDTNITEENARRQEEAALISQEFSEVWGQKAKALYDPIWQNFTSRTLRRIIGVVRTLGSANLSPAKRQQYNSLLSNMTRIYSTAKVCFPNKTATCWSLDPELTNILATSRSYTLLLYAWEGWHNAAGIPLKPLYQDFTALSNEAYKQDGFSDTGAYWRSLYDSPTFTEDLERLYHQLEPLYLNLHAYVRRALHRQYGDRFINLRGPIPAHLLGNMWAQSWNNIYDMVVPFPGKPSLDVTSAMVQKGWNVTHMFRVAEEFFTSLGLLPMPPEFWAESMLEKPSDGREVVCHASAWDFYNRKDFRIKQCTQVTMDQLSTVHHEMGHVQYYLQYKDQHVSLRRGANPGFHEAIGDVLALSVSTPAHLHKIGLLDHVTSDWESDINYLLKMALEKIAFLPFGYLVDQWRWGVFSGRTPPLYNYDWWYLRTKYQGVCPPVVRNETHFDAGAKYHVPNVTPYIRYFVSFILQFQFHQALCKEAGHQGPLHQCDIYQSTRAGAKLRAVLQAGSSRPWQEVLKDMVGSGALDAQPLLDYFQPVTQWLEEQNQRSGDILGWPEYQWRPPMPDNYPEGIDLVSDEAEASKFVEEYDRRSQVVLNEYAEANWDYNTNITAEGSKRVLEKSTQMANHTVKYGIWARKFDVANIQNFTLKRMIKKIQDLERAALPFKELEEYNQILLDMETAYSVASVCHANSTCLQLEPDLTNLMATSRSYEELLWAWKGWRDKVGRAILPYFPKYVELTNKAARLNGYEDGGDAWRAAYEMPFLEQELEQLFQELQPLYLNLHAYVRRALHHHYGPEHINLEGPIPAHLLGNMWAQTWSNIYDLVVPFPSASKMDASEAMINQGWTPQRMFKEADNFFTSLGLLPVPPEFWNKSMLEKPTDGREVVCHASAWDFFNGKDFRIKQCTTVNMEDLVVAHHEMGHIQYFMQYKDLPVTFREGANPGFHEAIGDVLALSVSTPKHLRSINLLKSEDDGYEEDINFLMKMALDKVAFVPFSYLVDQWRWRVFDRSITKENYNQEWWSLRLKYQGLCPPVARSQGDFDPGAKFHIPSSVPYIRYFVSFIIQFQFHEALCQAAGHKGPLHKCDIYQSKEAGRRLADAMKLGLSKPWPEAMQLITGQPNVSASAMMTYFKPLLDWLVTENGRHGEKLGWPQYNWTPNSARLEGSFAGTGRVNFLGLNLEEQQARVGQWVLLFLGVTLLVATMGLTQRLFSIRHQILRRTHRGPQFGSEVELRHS
Procedure, shortened: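 Fluorogenic substrate cleavage by 1 nM ACE, read at 320/405 nm after EDTA stop at ~30 min. Reactions at 25 °C, pH 7.5, in HEPES/NaCl/Brij-35 buffer; compounds tested at 12 concentrations in 5% DMSO.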

ACE-2 [2] = molecular target: T3, ACE-2 (Homo sapiens, UniProt Q9BYF1); test: ACE-2 Competitive Substrate Assay (ACS Assay); format: biochemical
T3 construct: a stop codon inserted after the serine immediately preceding the transmembrane domain; made in house; host or cells: CHO K1 cells (transient transfection, purified from conditioned medium)
T3 sequence (Q9BYF1 18-740 limits assumed): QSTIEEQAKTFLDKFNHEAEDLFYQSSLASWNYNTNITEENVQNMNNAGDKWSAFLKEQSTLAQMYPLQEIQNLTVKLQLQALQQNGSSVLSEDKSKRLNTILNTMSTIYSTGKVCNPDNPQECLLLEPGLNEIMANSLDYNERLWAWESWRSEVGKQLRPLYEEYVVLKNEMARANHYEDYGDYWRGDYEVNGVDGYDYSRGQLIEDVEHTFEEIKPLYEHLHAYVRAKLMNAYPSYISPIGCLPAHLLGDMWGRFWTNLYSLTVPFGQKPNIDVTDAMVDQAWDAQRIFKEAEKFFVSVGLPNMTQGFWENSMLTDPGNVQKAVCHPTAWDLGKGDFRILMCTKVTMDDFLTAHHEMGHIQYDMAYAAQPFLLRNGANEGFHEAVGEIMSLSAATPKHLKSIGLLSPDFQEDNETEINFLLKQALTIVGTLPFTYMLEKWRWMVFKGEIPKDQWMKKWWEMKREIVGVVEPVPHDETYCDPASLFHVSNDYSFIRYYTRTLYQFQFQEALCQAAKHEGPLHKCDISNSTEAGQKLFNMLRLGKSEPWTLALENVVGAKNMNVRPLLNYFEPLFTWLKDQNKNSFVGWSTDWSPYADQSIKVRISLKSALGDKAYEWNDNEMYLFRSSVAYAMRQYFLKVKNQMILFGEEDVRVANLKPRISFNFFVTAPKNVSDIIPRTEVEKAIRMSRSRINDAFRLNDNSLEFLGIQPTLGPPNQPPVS

[3] = Ki class, compounds tested in 5% DMSO, 12 concentrations, read-out: Human ACE-2 Activity
[4] = Ki class, compounds tested in 5% DMSO, 12 compound concentrations, Ki=Kiapp/(1+[S]/Km), read-out: Human ACE-2 Activity
[5] = Table 3, very good ACE-2 inhibiting compounds, species not given, read-out: ACE-2 Activity, Ki

ACE-2 (Rattus norvegicus, UniProt Q5EGZ1), sequence (Q5EGZ1 18-805): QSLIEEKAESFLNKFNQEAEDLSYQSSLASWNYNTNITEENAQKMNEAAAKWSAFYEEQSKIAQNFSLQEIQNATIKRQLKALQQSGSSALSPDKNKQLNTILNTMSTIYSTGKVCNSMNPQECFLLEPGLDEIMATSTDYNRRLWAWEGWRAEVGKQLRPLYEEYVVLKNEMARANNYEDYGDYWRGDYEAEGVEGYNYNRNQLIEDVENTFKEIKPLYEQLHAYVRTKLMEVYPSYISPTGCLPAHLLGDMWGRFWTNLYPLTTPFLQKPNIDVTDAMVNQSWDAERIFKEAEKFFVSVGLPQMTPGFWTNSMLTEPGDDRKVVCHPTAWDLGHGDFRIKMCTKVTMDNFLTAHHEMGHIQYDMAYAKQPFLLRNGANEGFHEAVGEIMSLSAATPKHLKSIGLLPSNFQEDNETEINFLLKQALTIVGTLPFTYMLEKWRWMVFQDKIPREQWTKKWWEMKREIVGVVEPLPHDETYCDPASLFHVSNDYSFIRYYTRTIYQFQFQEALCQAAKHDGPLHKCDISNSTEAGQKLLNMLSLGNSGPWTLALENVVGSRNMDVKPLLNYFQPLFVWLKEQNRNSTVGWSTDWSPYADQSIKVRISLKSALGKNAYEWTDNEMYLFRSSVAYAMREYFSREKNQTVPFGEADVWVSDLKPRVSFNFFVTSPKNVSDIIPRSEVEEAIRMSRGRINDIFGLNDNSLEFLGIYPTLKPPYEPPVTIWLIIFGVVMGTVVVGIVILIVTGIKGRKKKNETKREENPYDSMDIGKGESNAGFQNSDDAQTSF

`CC(C)CC(N[C@@H](Cc1cncn1Cc1ccc(Cl)cc1)C(=O)O)C(=O)O` (single isomer, unassigned) [GM, 2-[1-Carboxy-2-[3-(4-chloro-benzyl)-3H-imidazol-4-yl]-ethylamino]4-methyl-pentanoic acid] showed a Ki (ACE-2 [1]; 12 concentrations) of under 0.1 µM, a Ki (Carboxypeptidase A; 12 concentrations) of 10 to 50 µM and a Ki (ACE (Sigma, A2580); 12 concentrations) of over 50 µM. The Ki (ACE-2 [2]; [3]) was under 0.1 µM.
Work on `CC(C)CC(N[C@@H](Cc1cncn1Cc1ccc(Cl)c(Cl)c1)C(=O)O)C(=O)O` (single isomer, unassigned) [GW] yielded a Ki (ACE-2 [1]; 12 compound concentrations) of under 0.1 µM, a Ki (Carboxypeptidase A; 12 compound concentrations) of 10 to 50 µM and a Ki (ACE (Sigma, A2580); 12 compound concentrations) of 10 to 50 µM. The Ki (ACE-2 [2]; [4]) was under 0.1 µM.
`CC(C)CC(N[C@@H](Cc1cncn1Cc1cccc(Cl)c1)C(=O)O)C(=O)O` (single isomer, unassigned) [HC, 2-[1-Carboxy-2-[3-(3-chloro-benzyl)-3H-imidazol-4-yl]-ethylamino)4-methyl-pentanoic acid] showed a Ki (ACE-2 [1]; 12 compound concentrations) of under 0.1 µM, a Ki (Carboxypeptidase A; 12 compound concentrations) of 10 to 50 µM and a Ki (ACE (Sigma, A2580); 12 compound concentrations) of 10 to 50 µM. For the same compound, the Ki (ACE-2 [2]; [4]) was under 0.1 µM and the Ki (ACE-2 [2]; [5]) was under 0.05 µM.
`Cc1ccc(Cn2cncc2C[C@H](NC(CC(C)C)C(=O)O)C(=O)O)cc1` (single isomer, unassigned) [HG, 2-[1-Carboxy-2-[3-(4-methyl-benzyl)-3H-imidazol-4-yl]-ethylamino)4-methyl-pentanoic acid] was tested, and the Ki (ACE-2 [1]; 12 compound concentrations) was under 0.1 µM, the Ki (Carboxypeptidase A; 12 compound concentrations) was 10 to 50 µM and the Ki (ACE (Sigma, A2580); 12 compound concentrations) was 10 to 50 µM. The Ki (ACE-2 [2]; [4]) was under 0.1 µM and the Ki (ACE-2 [2]; [5]) was under 0.05 µM.
Compound `Cc1ccc(Cn2cncc2C[C@H](NC(CC(C)C)C(=O)O)C(=O)O)cc1C` (single isomer, unassigned) [HK, 2-[1-Carboxy-2-[3-(3,4-dimethyl-benzyl)-3H-imidazol-4-yl]-ethylamino)4-methyl-pentanoic acid] has a Ki (ACE-2 [1]; 12 compound concentrations) of under 0.1 µM, a Ki (Carboxypeptidase A; 12 compound concentrations) of 10 to 50 µM and a Ki (ACE (Sigma, A2580); 12 compound concentrations) of 10 to 50 µM. The Ki (ACE-2 [2]; [4]) was under 0.1 µM and the Ki (ACE-2 [2]; [5]) was under 0.05 µM.
For `Cc1cccc(Cn2cncc2C[C@H](NC(CC(C)C)C(=O)O)C(=O)O)c1` (single isomer, unassigned) [HO, 2-[1-Carboxy-2-[3-(3-methyl-benzyl)-3H-imidazol-4-yl]-ethylamino]4-methyl-pentanoic acid], the Ki (ACE-2 [1]; 12 compound concentrations) was under 0.1 µM, the Ki (Carboxypeptidase A; 12 compound concentrations) was 10 to 50 µM and the Ki (ACE (Sigma, A2580); 12 compound concentrations) was 10 to 50 µM. For the same compound, the Ki (ACE-2 [2]; [4]) was under 0.1 µM and the Ki (ACE-2 [2]; [5]) was under 0.05 µM.
Compound `Cc1cc(C)cc(Cn2cncc2C[C@H](NC(CC(C)C)C(=O)O)C(=O)O)c1` (single isomer, unassigned) [HQ, 2-[1-Carboxy-2-[3-(3,5-dimethyl-benzyl)-3H-imidazol-4-yl]-ethylamino]4-methyl-pantanoic acid] has a Ki (ACE-2 [1]; 12 compound concentrations) of under 0.1 µM, a Ki (Carboxypeptidase A; 12 compound concentrations) of 10 to 50 µM and a Ki (ACE (Sigma, A2580); 12 compound concentrations) of 10 to 50 µM. The Ki (ACE-2 [2]; [4]) was under 0.1 µM and the Ki (ACE-2 [2]; [5]) was under 0.05 µM.
`CC(C)CC(N[C@@H](Cc1cncn1Cc1ccc(OC(F)(F)F)cc1)C(=O)O)C(=O)O` (single isomer, unassigned) [HS, 2-[1-Carboxy-2-[3-(4-trifluoromethoxy-benzyl)-3H-imidazol-4-yl]-ethylamino]-4-methyl-pentanoic acid] showed a Ki (ACE-2 [1]; 12 compound concentrations) of 0.1 to 0.5 µM, a Ki (Carboxypeptidase A; 12 compound concentrations) of 10 to 50 µM and a Ki (ACE (Sigma, A2580); 12 compound concentrations) of 10 to 50 µM. The Ki (ACE-2 [2]; [4]) was under 0.1 µM and the Ki (ACE-2 [2]; [5]) was 0.05 to 0.1 µM.
In the case of `CC(C)CC(N[C@@H](Cc1cncn1Cc1ccc(C(C)C)cc1)C(=O)O)C(=O)O` (single isomer, unassigned) [HU, 2-[1-Carboxy-2-[3-(4-isopropyl-benzyl)-3H-imidazol-4-yl]-ethylamino)4-methyl-pentanoic acid], the Ki (ACE-2 [1]; 12 compound concentrations) is reported as 0.1 to 0.5 µM, the Ki (Carboxypeptidase A; 12 compound concentrations) is reported as under 10 µM and the Ki (ACE (Sigma, A2580); 12 compound concentrations) is reported as under 10 µM. The Ki (ACE-2 [2]; [4]) was under 0.1 µM and the Ki (ACE-2 [2]; [5]) was 0.05 to 0.1 µM.
`CC(C)C[C@@H](C(=O)O)N(C(=O)c1ccccc1)C(CCc1ccccc1)C(=O)O` (stereo in doubt) [AV, 2-[Benzoyl-(1-carboxy-3-phenyl-propyl)-amino]-4-methyl-pentanoic acid] was tested, and the Ki (ACE-2 [1]; 12 concentrations) was over 0.5 µM, the Ki (Carboxypeptidase A; 12 concentrations) was 10 to 50 µM and the Ki (ACE (Sigma, A2580); 12 concentrations) was over 50 µM. The Ki (ACE-2 [2]; [3]) was over 0.5 µM.

Reference: patent US7045532B2 (Millennium Pharmaceuticals, Inc., priority 1999, dated 2006)
